Results from US20210177795A1 (priority 2017, published 2021).
Entries after “also recorded” stand apart in the source; their conditions may differ.

Assays:
[1] = mouse, in vivo
KC = test system: KC; design: species or system C57BL/6 mice; settings: mouse, in vivo
MCP-1 = test system: MCP-1; design: species or system C57BL/6 mice; settings: mouse, in vivo
IL-10 = test system: IL-10; design: species or system C57BL/6 mice; settings: mouse, in vivo
[2] = test system: Udorn influenza virus (A/Udorn/307/72 (H3N2)); design: species or system C57BL/6 mice; settings: mouse, in vivo
RANTES = test system: RANTES; design: species or system C57BL/6 mice; settings: mouse, in vivo
IL-6 = test system: IL-6; design: species or system C57BL/6 mice; settings: mouse, in vivo
cytokines/chemokines = test system: cytokines/chemokines; design: species or system C57BL/6 mice; settings: mouse, in vivo

CCCCCCCCCCCCCCCC(=O)OCC(CSC[C@H](N)C(=O)N[C@@H](CO)C(=O)N[C@@H](CO)C(=O)NCCOCCOCCOCCOCCOCCOCCOCCOCCOCCOCCOCCOCCC(=O)NCC(N)=O)OC(=O)CCCCCCCCCCCCCCC (stereo partly drawn) [INNA-003, PEG-S—S-Pam2Cys]
greatest weight loss [1]: 1.89%±1.15%

CCC(=O)OCC(CSCC(N)C(=O)NC(CO)C(=O)NCCOCC(=O)NCC(N)=O)OC(=O)CC (stereo not drawn) [INNA-006, PEG-S-Pam2Cys]
KC in the lungs compared to the saline control (KC): no significance | KC level in lungs (KC): ~14 pg/mL | KC level in nasal turbinates (KC): ~83 pg/mL | KC levels in the lung (KC): ~16.3 pg/mL | fold increase of KC in nasal turbinates vs saline (KC): 2 fold | fold increase of KC secretion in lungs compared to INNA-003 (KC): 2 fold | fold increase of KC secretion in lungs compared to saline control (KC): 3 fold | MCP-1 level in nasal turbinates (MCP-1): ~66 pg/mL | fold increase of MCP-1 in nasal turbinates vs saline (MCP-1): 7 fold | IL-10 level in nasal turbinates (IL-10): ~17 pg/mL | fold increase of IL-10 in nasal turbinates vs saline (IL-10): 2 fold | progression of influenza virus to the lungs [2]: significantly inhibited; also recorded: partial inhibition | RANTES level in nasal turbinates (RANTES): ~141 pg/mL | RANTES secretion in nasal turbinates compared to INNA-003 (RANTES): increased RANTES secretion | fold increase of RANTES in nasal turbinates vs saline (RANTES): 1.9 fold | IL-6 in nasal turbinates, fold lower with 3 doses vs single dose (IL-6): approximately 25 fold | fold increase in IL-6 levels in nasal turbinates vs saline (IL-6): 98 fold | cytokine/chemokine levels in nasal turbinates, lungs and sera, 3 repeat doses vs single dose (cytokines/chemokines): marked decrease | cytokine/chemokine profiles in lungs, trachea and sera, single vs triple dose regimes (cytokines/chemokines): no discernible differences | proinflammatory cytokines and chemokines including IL-6, KC & MCP-1 in nasal turbinates vs saline (cytokines/chemokines): increases were detected in a dose-dependent manner | greatest weight loss [1]: 1.87%±1.33%

PEG-[Arg]4-Ser-Ser-Pam2Cys [INNA-002]
antiviral effect across doses [2]: dose-dependent antiviral-effect | progression of influenza virus to the lungs [2]: inhibited; also recorded: partial inhibition
